These results are taken from ChEMBL document CHEMBL1123684, “Synthesis and biological properties of 9-(trans-4-hydroxy-2-buten-1-yl)adenine and guanine: open-chain analogues of neplanocin A” (1987).

In assay [1] the test system is L1210. Briefly: Apparent inhibition of incorporation of labeled thymidine into DNA in murine leukemia L1210 cell;No inhibition. The class given is functional, cell-based. The conditions noted are these: Mus musculus.
Assay [2] concerns Vesicular stomatitis virus. Description: Antiviral activity against vesicular stomatis virus (VSV); Inactive. It counts as functional, organism-based.
Assay [3] deals with L1210. Description: Percent inhibition of growth of murine leukemia L1210 cell culture at 1 mM was determined. The class given is functional. The conditions noted are these: Mus musculus.
Another assay deals with Human alphaherpesvirus 2. Briefly: Antiviral activity against herpes simplex virus 2 (HSV 2); Inactive. The class given is functional, organism-based.
The next assay concerns Human alphaherpesvirus 1. Briefly: Antiviral activity against herpes simplex virus-1 (HSV 1); Inactive. The class given is functional, organism-based.

Calls of active or inactive are those of the source. The calls are words filed in the database; no cut-off is given here.

With `Nc1ccn([C@@H]2O[C@H](CO)[C@@H](O)[C@@H]2O)c(=O)n1`, the outcome in the assay on L1210 [1] was inactive.

By inhibition is commonly meant the percentage by which the read-out fell short of the control. Consider `Nc1ncnc2c1ncn2[C@@H]1C=C(CO)[C@@H](O)[C@H]1O` [NEOPLANOCIN A], for which the outcome (in assay [2]; in the assay on Human alphaherpesvirus 2; in the assay on Human alphaherpesvirus 1) was inactive. This compound gave an inhibition at 1000 µM in the assay on L1210 [3] of 50%.

Take `Nc1nc(O)c2ncn([C@@H]3C=C(CO)[C@@H](O)[C@H]3O)c2n1`: the outcome (in assay [2]; with Human alphaherpesvirus 2; in the assay with Human alphaherpesvirus 1) was inactive. Testing at 1000 µM in the assay with L1210 [3] gave an inhibition of 50%.
